From PMC6277767, “Broad and Region-Specific Impacts of the Synthetic Cannabinoid CP 55,940 in Adolescent and Adult Female Mouse Brains” (Frontiers in Molecular Neuroscience, 2018)

Tested on: CD1 female mouse brain lipidome
Assay: Brain-region lipid levels (HPLC/MS/MS lipidomics) 2 h after single i.p. 3 mg/kg CP 55,940 vs vehicle
Type: in vivo
Protocol: The Bloomington Institutional Animal Care and Use Committee of Indiana University reviewed and approved the animal procedures. Female mice from the CD1 strain were utilized to match our study examining THC’s effects on the brain lipidome ([Leishman et al., 2018]). Mice were given a single i.p. injection of either 3 mg/kg CP or 1:1:18 cremophor:ethanol:saline vehicle (please refer to the section “3 mg/kg CP Is Relevant for Synthetic Cannabinoid Abuse and Has Stronger Effects on the Female Mouse Brain Lipidome During Adolescence” for a justification of dose and use of female mice). Three different age groups were given injections: PND 35 and PND 50 adolescents, and adult mice (PND 113). At least eight mice in each age group received CP and at least eight received vehicle. Matching the THC study time course ([Leishman et al., 2018]), mice were sacrificed via rapid decapitation 2 h after injection. Brains were immediately removed and flash-frozen in liquid nitrogen, and then stored at -80°C until dissections were performed. Brains were dissected on an ice-cold dissection plate into the following regions: STR, HIPP, CER, THAL, CTX, HYP, MID, and STEM. These abbreviations for these brain areas will be used exclusively when discussing the results generated by these specific dissections. Each dissected area was immediately placed in liquid nitrogen and then stored at -80°C until used for lipid extraction.
Tissue extracts were performed as previously described ([Bradshaw et al., 2006]; [Stuart et al., 2013]; [Raboune et al., 2014]; [Leishman et al., 2016a],[b], [2017], [2018]). First, samples were shock frozen in liquid nitrogen, weighed, and transferred to a centrifuge tube. The mass of the largest sample was multiplied by 50 to determine how many milliliters of HPLC-grade methanol (Fisher, Fair Lawn, NJ, United States) to add. Then, samples were spiked with 500 pmol deuterium-labeled NAGly (d8NAGly; Cayman Chemical, Ann Arbor, MI, United States). Samples were placed on ice in darkness for 2 h then individually homogenized and centrifuged at 19,000 × g for 20 min at 20°C. Supernatants were diluted with HPLC water (purified in house) to make a solution of 75% water, 25% supernatant. Lipids were partially purified on C18 solid phase extraction columns (Agilent, Palo Alto, CA, United States). A series of four elutions with 1.5 mL of 60%, 75%, 85%, and 100% methanol were collected ([Stuart et al., 2013]; [Leishman et al., 2016a],[b], [2018]).
As previously described ([Bradshaw et al., 2006]; [Tan et al., 2006]; [Smoum et al., 2010]; [Stuart et al., 2013]; [Tortoriello et al., 2013]; [Raboune et al., 2014]; [Leishman et al., 2016a],[b], [2017], [2018]), samples were analyzed using an Applied Biosystems API 3000 triple quadrupole mass spectrometer with electrospray ionization (Foster City, CA, United States). Using an Agilent XDB-C18 reversed phase analytical column and optimized mobile phase gradients, 20 μL from each elution were chromatographed. Two Shimadzu 10ADvp pumps (Columbia, MD, United States) provided the pressure for gradient elution. Mobile phase A: 20% methanol, 80% water (v/v) and 1 mM ammonium acetate (Sigma, St. Louis, MO, United States). Mobile phase B: 100% methanol, 1 mM ammonium acetate. Every method run began with 0% mobile phase B, reached 100% mobile phase B flowing at 0.2 mL/min, and gradually returned to 0% mobile phase B.
This screening library will be referred to as the lipidome when discussing data from this study. HPLC/MS/MS data were analyzed using Analyst software (Applied Biosystems) ([Bradshaw et al., 2006]; [Tan et al., 2006]; [Stuart et al., 2013]; [Tortoriello et al., 2013]; [Raboune et al., 2014]; [Leishman et al., 2016a],[b], [2017], [2018]). Chromatograms (Supplementary Figure 3) were generated by determining the retention time of analytes from the analytical column with a [M-1] or [M+1] parent peak and a fragmentation peak corresponding to the programmed values. […]

With CCCCCCC(C)(C)c1ccc([C@@H]2C[C@H](O)CC[C@H]2CCCO)c(O)c1 [CP 55,940] the “N-arachidonoyl GABA Direction (relative to Veh)” value (PND 35 hypothalamus) was “↓”, the “N-arachidonoyl GABA Magnitude (x Veh level)” value (PND 35 hypothalamus) was 0.74 x Veh level and the “N-arachidonoyl alanine Magnitude (x Veh level)” value (PND 35 hypothalamus) was 0.55 x Veh level. For the same compound, the “N-arachidonoyl alanine, Direction (relative to Veh)” value (PND 35 hypothalamus) was “↓”, the “N-arachidonoyl ethanolamine, Direction (relative to Veh)” value (PND 35 hypothalamus) was “↓” and the “N-arachidonoyl ethanolamine, Magnitude (x Veh level)” value (PND 35 hypothalamus) was 0.76 x Veh level. The “N-arachidonoyl glycine Direction (relative to Veh)” value (PND 35 hypothalamus) was “↓”, the “N-arachidonoyl glycine Magnitude (x Veh level)” value (PND 35 hypothalamus) was 0.70 x Veh level and the “N-arachidonoyl phenylalanine, Direction (relative to Veh)” value (PND 35 hypothalamus) was “↓”. For the same compound, the “N-arachidonoyl phenylalanine, Magnitude (x Veh level)” value (PND 35 hypothalamus) was 0.86 x Veh level, the “N-arachidonoyl taurine Direction (relative to Veh)” value (PND 35 hypothalamus) was “↓” and the “N-arachidonoyl taurine Magnitude (x Veh level)” value (PND 35 hypothalamus) was 0.70 x Veh level. The “N-docosahexaenoyl GABA Direction (relative to Veh)” value (PND 35 hypothalamus) was “↓”, the “N-docosahexaenoyl GABA Magnitude (x Veh level)” value (PND 35 hypothalamus) was 0.68 x Veh level and the “N-docosahexaenoyl ethanolamine, Direction (relative to Veh)” value (PND 35 hypothalamus) was “↓”. The “N-docosahexaenoyl ethanolamine, Magnitude (x Veh level)” value (PND 35 hypothalamus) was 0.59 x Veh level, the “N-linoleoyl alanine direction (relative to Veh)” value (PND 35 hypothalamus) was “↓” and the “N-linoleoyl alanine magnitude (x Veh level)” value (PND 35 hypothalamus) was 0.77 x Veh level. The “N-oleoyl GABA Magnitude (x Veh level)” value (PND 35 hypothalamus) was 0.87 x Veh level, the “N-oleoyl GABA direction (relative to Veh)” value (PND 35 hypothalamus) was “↓” and the “N-oleoyl alanine Magnitude (x Veh level)” value (PND 35 hypothalamus) was 0.84 x Veh level. The “N-oleoyl alanine direction (relative to Veh)” value (PND 35 hypothalamus) was “↓”, the “N-oleoyl ethanolamine, Direction (relative to Veh)” value (PND 35 hypothalamus) was “↓” and the “N-oleoyl ethanolamine, Magnitude (x Veh level)” value (PND 35 hypothalamus) was 0.65 x Veh level. The “N-palmitoyl ethanolamine, Direction (relative to Veh)” value (PND 35 hypothalamus) was “↓”, the “N-palmitoyl ethanolamine, Magnitude (x Veh level)” value (PND 35 hypothalamus) was 0.66 x Veh level and the “N-palmitoyl leucine, Direction (relative to Veh)” value (PND 35 hypothalamus) was “↑”. The “N-palmitoyl leucine, Magnitude (x Veh level)” value (PND 35 hypothalamus) was 1.30 x Veh level, the “N-stearoyl ethanolamine direction (relative to Veh)” value (PND 35 hypothalamus) was “↓” and the “N-stearoyl ethanolamine magnitude (x Veh level)” value (PND 35 hypothalamus) was 0.73 x Veh level. The “Oleic acid, Direction (relative to Veh)” value (PND 35 hypothalamus) was “↓”, the “Oleic acid, Magnitude (x Veh level)” value (PND 35 hypothalamus) was 0.72 x Veh level and the “PGE2 Direction (relative to Veh)” value (PND 35 hypothalamus) was “↓”. The “PGE2 Magnitude (x Veh level)” value (PND 35 hypothalamus) was 0.78 x Veh level, the “PGF2α Direction (relative to Veh)” value (PND 35 hypothalamus) was “↑” and the “PGF2α Magnitude (x Veh level)” value (PND 35 hypothalamus) was 1.27 x Veh level. The “phoshoLEA direction (relative to Veh)” value (PND 35 hypothalamus) was “↑”, the “phoshoLEA magnitude (x Veh level)” value (PND 35 hypothalamus) was 1.47 x Veh level and the “2-linoleoyl glycerol: Magnitude (x Veh level)” value (PND 35 midbrain, 3mg/kg) was 0.76 x Veh level. The “6-ketoPGF1α: Magnitude (x Veh level)” value (PND 35 midbrain, 3mg/kg) was 0.86 x Veh level, the “Arachidonic acid: Magnitude (x Veh level)” value (PND 35 midbrain, 3mg/kg) was 0.88 x Veh level and the “N-arachidonoyl GABA: Magnitude (x Veh level)” value (PND 35 midbrain, 3mg/kg) was 0.69 x Veh level. For the same compound, the “N-arachidonoyl alanine: Magnitude (x Veh level)” value (PND 35 midbrain, 3mg/kg) was 0.79 x Veh level, the “N-arachidonoyl glycine: Magnitude (x Veh level)” value (PND 35 midbrain, 3mg/kg) was 0.89 x Veh level and the “N-arachidonoyl serine: Magnitude (x Veh level)” value (PND 35 midbrain, 3mg/kg) was 0.82 x Veh level. The “N-arachidonoyl taurine: Magnitude (x Veh level)” value (PND 35 midbrain, 3mg/kg) was 0.87 x Veh level, the “N-arachidonoyl tyrosine: Magnitude (x Veh level)” value (PND 35 midbrain, 3mg/kg) was 0.81 x Veh level and the “N-docosahexaenoyl GABA: Magnitude (x Veh level)” value (PND 35 midbrain, 3mg/kg) was 0.72 x Veh level. For the same compound, the “N-docosahexaenoyl alanine: Magnitude (x Veh level)” value (PND 35 midbrain, 3mg/kg) was 0.82 x Veh level, the “N-docosahexaenoyl glycine: Magnitude (x Veh level)” value (PND 35 midbrain, 3mg/kg) was 0.88 x Veh level and the “N-docosahexaenoyl leucine: Magnitude (x Veh level)” value (PND 35 midbrain, 3mg/kg) was 1.40 x Veh level.
